Assay results as given in PMC13159774, “Functional Characterization of the Cat and Dog Wild‐Type and Mutant MDR1 Carrier Proteins and Frequency of the MDR1 Gene Mutation in 800 Cats From Germany” (Journal of Veterinary Pharmacology and Therapeutics, 2025).
Values joined by “and” are separate entries in the source; they are usually repeats but may differ in a detail not shown here. Equal entries are not always repeated. “Also recorded” adds a separate entry of the source. Where two headings read alike, the source gives them in different places. Each block holds one molecule with its values, some of them ahead of it.

Key:
[1] = tested on: wild-type MDR1 (P-glycoprotein) of dog and cat; assay: Rh123 efflux inhibition in MDR1-HEK293 cells, stated for both wild-type MDR1 carriers together; details: dog and cat, IC50 range, inhibition of both wild-type MDR1 carriers (dog and cat), 5 μM Rh123, HEK293, range over both species and experiments
Method: (§1) Transport inhibition experiments were performed with 5 μM Rh123 as the probe substrate in stably transfected MDR1‐HEK293 cells. Cells were seeded onto polylysine‐coated 96‐well plates and gene expression was induced with tetracycline treatment at 1 μg/mL. […] Subsequently, the PBS was replaced with 80 μL of transport buffer again containing the respective inhibitor or solvent alone, and cells were further incubated for 60 min at 37°C for the efflux phase.
(§2) All graphs and diagrams were generated with GraphPad Prism 6 (GraphPad Software Inc., San Diego, CA, USA). The IC50 values were determined by nonlinear regression analysis using the equation log (inhibitor) versus response—variable slope settings. Statistical analyses were performed using GraphPad Prism 6. As detailed in the figure legends, either Student's t‐test or two‐way ANOVA was applied, as appropriate.

[2] = target: dog MDR1 wt (canine MDR1 carrier) (Canis lupus familiaris, UniProt Q4PLA8); assay: Rh123 efflux inhibition (IC50) in stably transfected MDR1-HEK293 cells, dog MDR1 wt; details: for IC50: IC50, inhibition of Rh123 efflux, dog MDR1 wt, 5 μM Rh123, HEK293 after tetracycline treatment, one value per independent experiment (two experiments)
Sequence of dog MDR1 wt (canine MDR1 carrier) (Q4PLA8 entry or part of it): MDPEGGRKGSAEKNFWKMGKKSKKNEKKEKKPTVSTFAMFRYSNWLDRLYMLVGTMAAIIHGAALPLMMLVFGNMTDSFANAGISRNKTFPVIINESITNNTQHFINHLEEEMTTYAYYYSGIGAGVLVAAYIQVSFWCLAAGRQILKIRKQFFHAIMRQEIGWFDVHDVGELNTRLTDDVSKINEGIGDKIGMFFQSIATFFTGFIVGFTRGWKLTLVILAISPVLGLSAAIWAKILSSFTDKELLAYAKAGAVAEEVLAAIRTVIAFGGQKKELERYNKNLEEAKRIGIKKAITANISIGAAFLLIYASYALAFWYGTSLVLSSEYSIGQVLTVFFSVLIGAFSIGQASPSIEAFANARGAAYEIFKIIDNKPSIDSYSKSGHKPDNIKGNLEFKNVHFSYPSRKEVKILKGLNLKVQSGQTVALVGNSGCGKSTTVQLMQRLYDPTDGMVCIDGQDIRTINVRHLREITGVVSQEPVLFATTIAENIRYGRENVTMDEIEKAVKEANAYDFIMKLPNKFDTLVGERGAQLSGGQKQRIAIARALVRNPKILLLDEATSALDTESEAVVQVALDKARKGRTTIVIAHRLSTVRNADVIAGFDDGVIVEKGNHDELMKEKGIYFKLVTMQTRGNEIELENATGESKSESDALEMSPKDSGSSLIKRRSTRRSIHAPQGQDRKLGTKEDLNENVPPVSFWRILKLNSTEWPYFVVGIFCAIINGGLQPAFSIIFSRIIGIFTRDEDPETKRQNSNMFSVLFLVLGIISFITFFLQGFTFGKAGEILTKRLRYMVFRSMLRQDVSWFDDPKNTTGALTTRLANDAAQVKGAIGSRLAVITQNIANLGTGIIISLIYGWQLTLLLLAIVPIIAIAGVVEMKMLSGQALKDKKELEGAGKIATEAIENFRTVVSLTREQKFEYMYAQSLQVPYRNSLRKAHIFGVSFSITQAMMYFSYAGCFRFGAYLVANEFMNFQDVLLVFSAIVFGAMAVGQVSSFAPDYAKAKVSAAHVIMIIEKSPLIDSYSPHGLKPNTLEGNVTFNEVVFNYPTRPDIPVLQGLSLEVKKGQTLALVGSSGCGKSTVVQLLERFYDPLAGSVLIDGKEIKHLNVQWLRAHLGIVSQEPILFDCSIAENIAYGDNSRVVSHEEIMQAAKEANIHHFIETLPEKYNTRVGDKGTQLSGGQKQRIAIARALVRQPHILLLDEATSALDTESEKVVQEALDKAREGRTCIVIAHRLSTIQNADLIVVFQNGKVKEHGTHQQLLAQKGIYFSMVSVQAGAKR
Method: as §1, §2

[3] = target: cat MDR1 wt (feline MDR1 carrier) (Felis catus, UniProt D2KKF0); assay: Rh123 efflux inhibition (IC50) in stably transfected MDR1-HEK293 cells, cat MDR1 wt; details: IC50, inhibition of Rh123 efflux, 5 μM Rh123, HEK293 after tetracycline treatment, one value per independent experiment (two experiments)
Sequence of cat MDR1 wt (feline MDR1 carrier) (D2KKF0 entry or part of it): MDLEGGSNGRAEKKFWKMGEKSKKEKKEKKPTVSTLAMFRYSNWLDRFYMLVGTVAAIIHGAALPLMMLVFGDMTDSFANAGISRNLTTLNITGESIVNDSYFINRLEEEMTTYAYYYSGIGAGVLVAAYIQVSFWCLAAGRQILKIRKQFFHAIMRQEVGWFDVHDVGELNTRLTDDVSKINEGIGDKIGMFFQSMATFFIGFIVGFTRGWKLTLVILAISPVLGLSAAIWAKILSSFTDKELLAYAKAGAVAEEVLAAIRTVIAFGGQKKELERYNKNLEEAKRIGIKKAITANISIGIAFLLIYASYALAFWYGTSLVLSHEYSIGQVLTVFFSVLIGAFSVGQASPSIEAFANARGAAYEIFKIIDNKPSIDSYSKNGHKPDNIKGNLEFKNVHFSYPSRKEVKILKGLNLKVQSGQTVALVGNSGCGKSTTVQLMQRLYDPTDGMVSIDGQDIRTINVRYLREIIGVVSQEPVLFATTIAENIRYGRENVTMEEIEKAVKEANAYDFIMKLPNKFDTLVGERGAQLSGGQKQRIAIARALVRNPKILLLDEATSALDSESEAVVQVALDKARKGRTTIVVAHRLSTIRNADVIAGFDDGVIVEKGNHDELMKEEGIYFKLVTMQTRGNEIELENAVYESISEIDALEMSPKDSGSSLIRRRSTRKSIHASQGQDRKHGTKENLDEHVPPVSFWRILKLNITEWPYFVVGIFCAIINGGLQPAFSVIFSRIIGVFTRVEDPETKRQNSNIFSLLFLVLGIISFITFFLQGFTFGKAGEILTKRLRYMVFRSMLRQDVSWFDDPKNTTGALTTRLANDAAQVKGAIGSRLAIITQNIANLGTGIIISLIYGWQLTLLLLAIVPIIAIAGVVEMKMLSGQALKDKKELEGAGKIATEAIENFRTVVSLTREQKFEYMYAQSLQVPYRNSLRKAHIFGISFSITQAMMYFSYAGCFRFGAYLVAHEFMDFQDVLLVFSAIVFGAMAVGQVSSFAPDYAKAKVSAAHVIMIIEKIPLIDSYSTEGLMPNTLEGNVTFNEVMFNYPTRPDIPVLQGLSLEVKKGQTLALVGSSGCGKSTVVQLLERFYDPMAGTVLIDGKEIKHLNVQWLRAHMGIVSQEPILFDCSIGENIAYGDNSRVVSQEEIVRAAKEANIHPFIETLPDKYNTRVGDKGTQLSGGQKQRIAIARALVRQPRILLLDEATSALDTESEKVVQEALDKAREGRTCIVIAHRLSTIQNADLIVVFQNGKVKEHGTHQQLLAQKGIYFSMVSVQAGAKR
Method: as §1, §2

[4] = tested on: wild-type MDR1 carriers of dog and cat; assay: Rh123 efflux inhibition in MDR1-HEK293 cells, stated for both wild-type MDR1 carriers together; details: analyzed inhibitor concentration range, highest 100 μM
Method: as §1, §2

[5] = tested on: dogs with homozygous MDR1 gene mutation; details: cited from earlier work
MDR1 carrier = tested on: MDR1 carrier; parameters: method as in Lespine et al. [2007]; details: membrane vesicles from DC-3F-/ADX MDR1-overexpressing cells; ref Lespine et al. [2007]; read-out: Ki, ATPase activity of the MDR1 carrier stimulated by verapamil; cited from earlier work
dog MDR1 wt = assay: Rh123 transport experiment in HEK293 cells with/without tariquidar, dog MDR1 wt; assay type: cell-based; details: 1 μM TQD, 5 μM Rh123, HEK293
[6] = tested on: MDR1 carrier (parent MDCKII, dog MDR1 wt and cat MDR1 wt MDCKII^MDR1ko cells); assay: Transwell transport experiments in MDCKII cells with Rh123 and [3H]digoxin; assay type: cell-based; details: 1 μM TQD
Method: For transwell transport experiments in the MDCKII cell lines, 3 × 10^5 cells were seeded per 12‐mm/0.4 μm transwell membrane inserts (Sarstedt, Numbrecht, Germany). One day after seeding, the medium was changed. The transport experiments were performed 72 h after seeding and after reaching 100% confluence. Measurement of the transepithelial electrical resistance (TEER) was conducted on each well with the Millicell ERS‐2 electrical resistance system (Millipore) to confirm the integrity of the monolayer. Only cell monolayers that reached > 150 Ω cm^2 were used for the transport experiments. […] Fluorescence of Rh123 was detected with the GloMax plate reader. […] The amount of [^3H]digoxin in the samples was quantified by Tri‐Carb 2910TR Liquid Scintillation Analyzer (Perkin Elmer).
For all transwell experiments with Rh123 and [^3H]digoxin as the substrates, apparent permeability coefficients (P app, cm/s) and the efflux ratios (ER) were calculated as follows: Papp=V/A×C0×dQ/dt where “V” is the volume of the receiver chamber (1.5 or 0.5 mL), “A” is the surface area of the transwell inserts (being 1.1 cm^2), “C 0” is the initial concentration of the compound, and “dQ/dt” is the transport rate.
From the P app values of the AB and BA transport experiments, the ER was calculated as follows: [drawing 1]

cat MDR1 wt = assay: Rh123 transport experiment in HEK293 cells with/without tariquidar, cat MDR1 wt; details: 1 μM TQD, 5 μM Rh123, HEK293
Method: Cells were seeded onto polylysine‐coated 24‐well plates. Gene expression was induced with 1 μg/mL tetracycline treatment. Cells were grown to confluence over 72 h at 37°C. […] After 30 min pre‐incubation, transport experiments were started by replacing the medium with transport buffer additionally containing 5 μM Rh123. The Rh123 uptake was stopped after 90 min by two‐times washing with ice‐cold PBS. Subsequently, the PBS was again replaced with 250 μL of DMEM as the transport buffer, with or without TQD, and the efflux phase lasted over 60 min at 37°C. Then, experiments were stopped by two‐times washing with ice‐cold PBS. Finally, cells were lysed with 500 μL of 1 N NaOH with 0.1% SDS. Cell‐associated fluorescence of Rh123 was quantified by GloMax microplate reader (Promega). Fluorescence was detected at 490 nm excitation and 510–570 nm emission. […] The absolute fluorescence units per well were normalized to the protein amount and expressed as relative fluorescence units (RFU)/μg protein.

[7] = stably transfected MDR1-HEK293 cells (tetracycline-induced), probe rhodamine 123 (Rh123), 5 μM

Compound: C/C=C/C[C@@H](C)C(=O)[C@H]1C(=O)N[C@@H](C(C)C)C(=O)N(C)CC(=O)N(C)[C@@H](CC(C)C)C(=O)N[C@@H](C(C)C)C(=O)N(C)[C@@H](CC(C)C)C(=O)N[C@@H](C)C(=O)N[C@H](C)C(=O)N(C)[C@@H](CC(C)C)C(=O)N(C)[C@@H](CC(C)C)C(=O)N(C)[C@@H](C(C)C)C(=O)N1C [PSC833, valspodar]
IC50 at 60 min [1]: 1 to 2 µM
IC50 [2]: 0.66 µM and 0.95 µM
IC50 [3]: 1.5 µM

Compound: O=C(CNC(=O)c1ccc(C2=NO[C@](c3cc(Cl)cc(C(F)(F)F)c3)(C(F)(F)F)C2)c2ccccc12)NCC(F)(F)F [afoxolaner]
Interaction with / inhibition of the MDR1 carriers from either species [4]: no detectable interaction; also recorded: no inhibition
Safety of oral administration ([5]; dogs with homozygous MDR1 gene mutation, monotherapy or in combination with milbemycin oxime, ref Drag et al. [2022]): safe

Compound: CO[C@H]1C[C@H](O[C@H]2[C@H](C)O[C@@H](O[C@@H]3/C(C)=C/C[C@@H]4C[C@@H](C[C@]5(C=C[C@H](C)[C@@H](C6CCCCC6)O5)O4)OC(=O)[C@@H]4C=C(C)[C@@H](O)[C@H]5OC/C(=C\C=C\[C@@H]3C)[C@]54O)C[C@@H]2OC)O[C@@H](C)[C@@H]1O [doramectin]
Outcome of off-label treatment ([5]; dogs with homozygous MDR1 mutation, 0.6 mg/kg subcutaneous injection, ref Mealey et al. [2001], Hopper et al. [2008], Geyer and Janko [2012]): fatal cases of neurological toxicity

Compound: Cc1cc(C2=NO[C@](c3cc(Cl)cc(Cl)c3)(C(F)(F)F)C2)ccc1C(=O)NCC(=O)NCC(F)(F)F [fluralaner]
Safety of oral administration ([5]; Collies with homozygous MDR1 gene mutation, ref Walther et al. [2014]): treatment safety without neurological toxicity
Inhibition of the canine MDR1 carrier ([2]; up to the maximum tested concentration of 100 μM): did not inhibit
IC50 [3]: 69.9 µM and > 100 µM

Compound: Cc1cc(C2=NO[C@@](c3cc(Cl)c(Cl)c(Cl)c3)(C(F)(F)F)C2)sc1C(=O)NCC(=O)NCC(F)(F)F [lotilaner]
IC50 at 60 min [1, 7]: 11 to 23 µM
IC50 [2]: 23.2 µM and 10.9 µM
IC50 [3]: 17.5 µM and 10.9 µM

IC50 at 60 min [1, 7]: 8 to 21 µM
IC50 [2]: 21.2 µM and 15.2 µM
IC50 [3]: 9.2 µM and 8.4 µM
Compound: CO/N=C1\C[C@]2(C[C@@H]3C[C@@H](C/C=C(\C)C[C@@H](C)/C=C/C=C4\CO[C@@H]5[C@H](O)C(C)=C[C@@H](C(=O)O3)[C@]45O)O2)O[C@H](/C(C)=C/C(C)C)[C@H]1C [moxidectin]

Compound: CS(=O)(=O)CC(=O)N1CC2(C1)OCc1cc(C3=NO[C@@](c4cc(Cl)c(F)c(Cl)c4)(C(F)(F)F)C3)ccc12 [sarolaner]
IC50 at 60 min [1]: 30 to 57 µM
IC50 [2]: 41.6 µM and 30 µM
IC50 [3]: 56.5 µM and 35.1 µM

Compound: CO[C@H]1C[C@H](O[C@@H]2/C(C)=C/C[C@@H]3C[C@@H](C[C@]4(CC[C@H](C)[C@@H](C5CCCCC5)O4)O3)OC(=O)[C@@H]3C=C(C)/C(=N/O)[C@H]4OC/C(=C\C=C\[C@@H]2C)[C@]43O)O[C@@H](C)[C@@H]1O [selamectin]
IC50 at 60 min [1]: 10 to 22 µM
Oral dose remaining without clinical symptoms of neurological toxicity ([5]; ivermectin-sensitive Collies, oral, ref Geyer and Janko [2012]): exceeding 15 mg/kg
IC50 [2]: 21.5 µM and 15.7 µM
Ki (MDR1 carrier): 1 µM
IC50 [3]: 14.3 µM and 10.3 µM

Compound: COc1cc2c(cc1OC)CN(CCc1ccc(NC(=O)c3cc(OC)c(OC)cc3NC(=O)c3cnc4ccccc4c3)cc1)CC2 [tariquidar]
IC50 at 60 min [1, 7]: 0.1 to 0.2 µM
Effect on Rh123 efflux activity of wild-type canine MDR1 (dog MDR1 wt): fully abolished
IC50 [2]: 0.06 µM and 0.12 µM
IC50 [3]: 0.14 µM and 0.23 µM
Effect on transcellular transport of [3H]digoxin ([6]; 1 μM [3H]digoxin, dog MDR1 wt and cat MDR1 wt cell lines): completely abolished
Effect on transcellular transport of Rh123 ([6]; 5 μM Rh123, dog MDR1 wt and cat MDR1 wt cell lines): completely abolished
Effect on Rh123 efflux activity of wild-type feline MDR1 (cat MDR1 wt): TQD‐sensitive reduction in Rh123 accumulation
